Among the data in BindingDB's records for doi:10.7270/Q2TX3CTT (Broad Institute, 2010) are EC50 values, retold here.

Structures can show the parent of a compound that is named as a salt.

As usually defined, the EC50 is the concentration needed to bring the measured effect to its halfway point. A low value points to an effect from little substance.

The target in this assay is Glycogen synthase kinase-3 beta (Homo sapiens, UniProt P49841). Put plainly: GSK3beta kinase inhibitor potency, dose response, biochemical, luminescence, cell-free homogeneous, retest (AID 434954).
Sequence of Glycogen synthase kinase-3 beta (P49841 whole entry): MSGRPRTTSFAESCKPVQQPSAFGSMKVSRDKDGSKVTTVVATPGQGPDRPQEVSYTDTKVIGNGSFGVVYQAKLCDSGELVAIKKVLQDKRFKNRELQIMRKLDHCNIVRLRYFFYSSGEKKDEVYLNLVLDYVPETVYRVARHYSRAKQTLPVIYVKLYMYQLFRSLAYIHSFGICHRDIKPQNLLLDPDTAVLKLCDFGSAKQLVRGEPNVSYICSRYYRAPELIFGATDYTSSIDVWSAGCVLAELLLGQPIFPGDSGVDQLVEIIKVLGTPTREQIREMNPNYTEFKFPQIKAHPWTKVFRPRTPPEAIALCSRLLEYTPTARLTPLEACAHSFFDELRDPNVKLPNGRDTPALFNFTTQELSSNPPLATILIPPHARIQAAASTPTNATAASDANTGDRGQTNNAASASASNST
`Nc1nc(NCC2CCCO2)nc(Nc2ccc(Cl)cc2)c1[N+](=O)[O-]` (configuration not stated) [N'-(4-Chloro-phenyl)-5-nitro-N-(tetrahydro-furan-2-ylmethyl)-pyrimidine-2,4,6-triamine] came in with an EC50 of 2.29 µM. For `COC(=O)c1sc(Nc2ccccc2)nc1C` [2-anilino-4-methyl-5-thiazolecarboxylic acid methyl ester], the EC50 is > 300 µM. In the case of `COC(=O)C1=C(C)N(Cc2ccccc2)C(NCc2ccc(OC)cc2)=N[C@H]1c1cccc(F)c1` [MLS000829932], the EC50 is > 300 µM. As for `Cc1ccc(SCCc2ccc(C)nc2)cc1`, the EC50 is > 300 µM.

In turn, `CC1(C)CC(=O)C=C(Nc2cc(-c3ccccc3)n[nH]2)C1` had an EC50 of 12.9 µM. `CC(=O)Nc1ccc(S(=O)(=O)NCc2ccc(C)n2C)cc1` [N-[4-[(1,5-dimethylpyrrol-2-yl)methylsulfamoyl]phenyl]ethanamide]: the EC50 is > 300 µM.

As for `COc1cc([CH+][N-]NC(=O)c2ccncc2)ccc1Oc1ccc([N+](=O)[O-])cn1` [N-[[3-methoxy-4-[(5-nitro-2-pyridinyl)oxy]phenyl]methylideneamino]-4-pyridinecarboxamide], the concentration giving a half-maximal response (EC50) is > 300 µM. To `Cc1cc(OCC(F)(F)C(F)(F)C(F)(F)C(F)F)nc(N)n1` [SMR000122155] belongs > 300 µM. For `CCN1CCN(c2ccc(S(=O)(=O)N3CCOCC3)cc2NC(=O)c2ccc(Cl)cc2Cl)CC1` [2,4-bis(chloranyl)-N-[2-(4-ethylpiperazin-1-yl)-5-morpholin-4-ylsulfonyl-phenyl]benzamide], the EC50 was > 300 µM. In the case of `N#Cc1c(O)nc(SCC(=O)Nc2nnc(C(F)(F)F)s2)nc1-c1ccccc1` [2-[(5-cyano-4-oxo-6-phenyl-1H-pyrimidin-2-yl)sulfanyl]-N-[5-(trifluoromethyl)-1,3,4-thiadiazol-2-yl]acetamide] it was > 300 µM. To `COc1ccc(CCNc2nc(-c3ccc(O)cc3)cs2)cc1OC` [SMR000502906] belongs > 300 µM; to `COc1cc(C=C2SC(Nc3ccc(O)cc3)=NC2=O)cc(OC)c1O` [MLS000715043], > 300 µM; to `CC(C)(C)C(=O)c1cnc(Nc2ccccc2)s1` [1-(2-anilino-1,3-thiazol-5-yl)-2,2-dimethylpropan-1-one], > 300 µM.

For the molecule `CC1(C)CC(CCNC(=O)CCl)(c2ccccc2)CCO1` (configuration not stated) [MLS000779552], the EC50 was > 300 µM.

`CC(C)OC(=O)c1nnn(-c2nonc2N)c1CSc1ccccn1` [1-(4-amino-1,2,5-oxadiazol-3-yl)-5-[(2-pyridinylthio)methyl]-4-triazolecarboxylic acid propan-2-yl ester] gave an EC50 of 54.1 µM.

Turning to `Cc1ccc2c(c1)NC(=O)c1cc([N+](=O)[O-])ccc1O2` [8-methyl-2-nitrodibenzo[b,f][1,4]oxazepin-11(10H)-one], the EC50 was > 300 µM. `CSc1nnc2ccc(-c3cccs3)nn12` [SMR000324231]: the EC50 is > 300 µM. As for `CN1CCc2[nH]c3ccc(C(=O)NN)cc3c2C1` [SMR000131639], the EC50 was > 300 µM. Regarding `O=C1Nc2cc(C(=O)NCCN3CCCCCC3)ccc2S/C1=C\c1ccccc1` [SMR000635247], the EC50 was > 300 µM.

As to `Cn1c(=O)[nH]c(=O)c2c1nc(Br)n2Cc1ccccc1Cl` [MLS000031623], the EC50 is > 300 µM.

Regarding `CCOC(=O)c1c(-c2ccccc2)oc2ccc(OCC(=O)NNC(=O)CCCC(=O)O)cc12`, the EC50 is > 300 µM. In the case of `Cc1ncc(C=C2C(=O)Nc3ccccc32)[nH]1` [3-[(Z)-(2-methyl-1H-imidazol-4-yl)methylidene]-1H-indol-2-one], the EC50 is > 300 µM. For the molecule `COc1ccc2c(c1)C(=O)C(=O)N2` [5-methoxy-2,3-dihydro-1H-indole-2,3-dione], the EC50 is > 300 µM.

Take `CCOc1ccc2c(c1)C(NC(C)=O)C(=O)N2CCN1CCOCC1` (configuration not stated) [N-[5-ethoxy-1-(2-morpholin-4-ylethyl)-2-oxo-3H-indol-3-yl]acetamide;hydrochloride]: the EC50 is > 300 µM.

Consider `C=CCNC(=S)NN=Cc1cn(-c2ccccc2)nc1-c1ccc(OC)cc1` [SMR000212115], for which the EC50 worked out at 42.5 µM. `CN(C)Cc1c(O)ccc2occ(C(=O)c3ccccc3)c12` [SMR000069709]: the EC50 is > 300 µM. For the molecule `COc1cccc(C(=O)C(C#N)=C(SC)SC)c1` [MLS000859112], the EC50 is > 300 µM.

For `Cc1ccc2c(C)c(C(=O)Nc3nnc(C)s3)oc2c1` [3,6-dimethyl-N-(5-methyl-1,3,4-thiadiazol-2-yl)-1-benzofuran-2-carboxamide], the EC50 was > 300 µM. Regarding `O=c1c2[nH]c3ccccc3c2ncn1C1CCCCC1` [SMR000039546], the EC50 was > 300 µM. In the case of `O=C(Nc1nnc(-c2cc(Cl)ccc2Cl)o1)c1ccco1` it was > 300 µM; in that of `CC1=NC(=O)NC(c2ccc(O)cc2)C1C(=O)OCC1CCCO1` (configuration not stated), > 300 µM. On to `O=C(NCCCN1CCCC1=O)c1c(O)n2ccsc2nc1=O` [5-hydroxy-7-oxo-N-[3-(2-oxo-1-pyrrolidinyl)propyl]-6-thiazolo[3,2-a]pyrimidinecarboxamide], for which the EC50 was > 300 µM.

`O=C(O)c1ccccc1Nc1ccc(OC(F)F)cc1` [SMR000372165]: the EC50 is > 300 µM. To `O=C(Cn1nnc(-c2ccccc2)n1)NN=Cc1ccc(-c2ccc(Cl)cc2)o1` [N'-{[5-(4-chlorophenyl)-2-furyl]methylene}-2-(5-phenyl-2H-tetrazol-2-yl)acetohydrazide] belongs > 300 µM.

Turning to `CCCCC(CC)C(=O)Nc1ncc([N+](=O)[O-])s1` (configuration not stated) [2-ethyl-N-(5-nitro-2-thiazolyl)hexanamide], the midpoint of the response, the EC50, lay at 64.2 µM.

Turning to `O=c1[nH]c(=S)n(-c2ccccc2F)c(O)c1C=NCc1ccco1` [(5E)-1-(2-fluorophenyl)-5-[(furan-2-ylmethylamino)methylidene]-2-sulfanylidene-1,3-diazinane-4,6-dione], a half-maximal response (EC50) required 80.2 µM. Regarding `O=C(O)/C=C/c1cccc2c1OCCO2` [(E)-3-(2,3-dihydro-1,4-benzodioxin-5-yl)-2-propenoic acid], the EC50 was > 300 µM.

For the molecule `COC(=O)c1ccc(Nc2nc(-c3ccncc3)nc3ccccc23)cc1` [4-[(2-pyridin-4-yl-4-quinazolinyl)amino]benzoic acid methyl ester], the EC50 is > 300 µM.

For the molecule `CN(C)c1ccc(/N=N/c2ccc(S(N)(=O)=O)cc2)cc1`, the EC50 is > 300 µM. On to `CCNc1nc(SCC(N)=O)nc2sc3c(c12)CCN(C)C3` [2-[[4-(ethylamino)-7-methyl-6,8-dihydro-5H-pyrido[4,5]thieno[1,2-c]pyrimidin-2-yl]sulfanyl]acetamide], for which the EC50 came to 49.4 µM.

In the case of `CCC(=O)Nc1sc2c(c1C(N)=O)CCN(Cc1ccccc1)C2`, the EC50 is > 300 µM.

For `COc1cccc2cc(C(=O)NCc3ccccc3Br)c(=O)oc12` [N-[(2-bromophenyl)methyl]-8-methoxy-2-oxo-1-benzopyran-3-carboxamide], the EC50 is > 300 µM. With `COc1ccc(-c2nn(-c3ccccc3)cc2CO)cc1OC` [MLS000110763], the EC50 was > 300 µM. To `COCCn1c(SCC(=O)NC(=O)NC(C)(C)C)nc2ccccc21` belongs > 300 µM; to `CCN1CCc2c(C#N)c(N3CCCCC3)nc(N3CCOCC3)c2C1` [MLS000071254], 16.1 µM; to `Oc1ccc(-c2nncn2-c2ccccc2)cc1` [SMR000274861], 7.15 µM. For the molecule `COc1ccc(OC)c(-c2cc(-c3cccnc3)nc(N)c2C#N)c1` [2-amino-4-(2,5-dimethoxyphenyl)-6-pyridin-3-ylpyridine-3-carbonitrile], the EC50 is > 300 µM. With `CC1CN(C(=O)CCCN2C(=O)c3ccccc3C2=O)CC(C)O1` (configuration not stated) [2-[4-(2,6-dimethylmorpholin-4-yl)-4-oxobutyl]isoindole-1,3-dione], the EC50 was > 300 µM. Turning to `CN(C)Cc1ccc(-c2nc3cccc4c3n2CCNC4=O)cc1`, the EC50 turned out to be 27.5 µM. This counts as double-digit micromolar. `CCSc1ccc2nnc(-c3cccs3)n2n1` [6-ethylsulfanyl-3-thiophen-2-yl-[1,2,4]triazolo[4,3-b]pyridazine] had an EC50 of 11.3 µM. In the case of `COCCCNc1nc(N)c([N+](=O)[O-])c(Nc2cc(OC)ccc2OC)n1` [N4-(2,5-dimethoxyphenyl)-N2-(3-methoxypropyl)-5-nitro-pyrimidine-2,4,6-triamine] it was 0.742 µM; in that of `Nc1nc(NCCCN2CCOCC2)nc(Nc2ccc(F)cc2)c1[N+](=O)[O-]` [4-N-(4-fluorophenyl)-2-N-(3-morpholin-4-ylpropyl)-5-nitropyrimidine-2,4,6-triamine], > 300 µM; in that of `Cc1ccc(N2CC(C(=O)Nc3c4c(nn3C(C)(C)C)CS(=O)(=O)C4)CC2=O)cc1` (configuration not stated) [N-[2-tert-butyl-5,5-bis(oxidanylidene)-4,6-dihydrothieno[3,4-c]pyrazol-3-yl]-1-(4-methylphenyl)-5-oxidanylidene-pyrrolidine-3-carboxamide], > 300 µM. In the case of `CCOc1cc(C)cc2oc(=O)cc(-c3ccccc3)c12` [SMR000116517], the EC50 was > 300 µM. As to `O=C(CCS(=O)(=O)c1ccccc1)Nc1ncc([N+](=O)[O-])s1` [SMR000605858], the EC50 is > 300 µM.

`Nc1nonc1-n1nnc(C(=O)NN=Cc2cccc(O)c2)c1CN1CCCC1` [1-(4-azanyl-1,2,5-oxadiazol-3-yl)-N-[(3-hydroxyphenyl)methylideneamino]-5-(pyrrolidin-1-ylmethyl)-1,2,3-triazole-4-carboxamide] gave an EC50 of 12.8 µM. Molecule `CCc1cc(=O)oc2cc(OC(C)=O)cc(OC(C)=O)c12` [(5-acetyloxy-4-ethyl-2-oxidanylidene-chromen-7-yl) ethanoate] registered an EC50 of 28.5 µM. With `COc1ccc(C(=O)c2sc(Nc3ccccc3)nc2N)cc1`, the EC50 came to 1.04 µM. This EC50 lies about 27-fold lower than the previous one. Consider `Nc1nc(NCc2ccco2)nc(Nc2ccccc2)c1[N+](=O)[O-]` [N-Furan-2-ylmethyl-5-nitro-N'-phenyl-pyrimidine-2,4,6-triamine], for which the EC50 is > 300 µM. On to `O=C(Nc1ccc(Cl)cc1)Nc1ccccn1` [1-(4-chlorophenyl)-3-(2-pyridinyl)urea], for which the EC50 turned out to be 43.7 µM. For `COc1ccc(Nc2ccccc2C(=O)O)cc1` [SMR000370544], the EC50 is > 300 µM. Regarding `COc1cc(OC)c(OC)cc1CNCC1COc2ccccc2O1` (configuration not stated) [SMR000516658], the 50% effective concentration (EC50) was > 300 µM.
